US6974839B2, “Method of delaying ejaculation” (DMI BioSciences, Inc., priority 2001, dated 2005)
Structures can show the parent of a compound that is named as a salt.

Tests used:
normal subject = test: Delay of ejaculation after an oral dose taken 30–60 minutes prior to sexual intercourse; assay type: in vivo, human
Excerpt: […]. […] […]

animal models = conditions: cited from earlier work
μ-opioid receptors = conditions: cited from earlier work

SMILES | delay of ejaculation (normal subject; 25 mg orally, 30–60 minutes prior to sexual intercourse, normal subject) [min] | ejaculation/orgasm achieved (normal subject; 100 mg) | side effects associated with the dose (normal subject; doses of 50–100 mg) | potency in producing analgesia relative to tramadol (animal models) | affinity of binding to μ-opioid receptors (μ-opioid receptors) | potency in μ-opioid binding relative to tramadol (μ-opioid receptors) [times]
COc1cccc([C@]2(O)CCCC[C@H]2CN(C)C)c1 (racemic) [tramadol hydrochloride, (±)cis-2-[(dimethylamino)methyl]-1-(3-methoxyphenyl)-cyclohexanol hydrochloride] | 10 to 15 | sometimes ejaculation/orgasm was not achieved | drowsiness, lightheadedness, dry mouth and a sense of slight euphoria (opioid effect) |  |  | 
CN(C)C[C@H]1CCCC[C@]1(O)c1cccc(O)c1 [M1] |  |  |  | up to 6 times | higher affinity binding | 200
COc1cccc(C2(O)CCCCC2CN(C)C)c1 (stereo not shown) [tramadol, 2-[(dimethylamino)methyl]-1-(3-methoxyphenyl)-cyclohexanol] |  |  |  |  | low affinity binding | 
